Read-outs that look alike come from different tables or passages of the source.
What was measured:
[1] = tested on: AA hairpin mismatched DNA (SEQ ID NO: 7); details: 20 μM in Tris buffer, λex=410 nm, AA hairpin mismatch
Excerpt: (§1) The emission increased around 3-fold for CA (SEQ ID NO: 5) and TC hairpin mismatched DNA (SEQ ID NO: 6), and 2-fold for AA hairpin mismatched DNA (SEQ ID NO: 7) (FIG. 5A).

[2] = tested on: TC hairpin mismatched DNA (SEQ ID NO: 6); details: 20 μM in Tris buffer, λex=410 nm, TC hairpin mismatch
Excerpt: as §1

[3] = tested on: CA hairpin mismatched DNA (SEQ ID NO: 5); details: 20 μM in Tris buffer, λex=410 nm, CA hairpin mismatch
Excerpt: as §1

[4] = tested on: cognate matched DNA (CG match, SEQ ID NO: 3); details: 20 μM in Tris buffer pH 7.1, 1-fold matched DNA
Procedure: The emission spectra for detection of CC mismatched DNA and matched DNA were determined (FIGS. 2A and 2B).

[5] = tested on: hairpin CC mismatched DNA with different adjacent base pairs; details: Pt(II) complex to DNA ratio 1.0
Excerpt: Especially, the 5′- . . . […] GCA . . . -3′ (SEQ ID NO: 24), 5′- . . . GCC . . . -3′ (SEQ ID NO: 25), GCG . . . -3′ (SEQ ID NO: 26) and 5′- . . .

Pt(II)(benzo[h]quinolone-1-benzyl-3-butylimidazolium bromide [PtCN2]
emission increase at high-energy fingerprint spectrum [1]: ~2 fold | emission increase at high-energy fingerprint spectrum [2]: around 3 fold | emission increase at high-energy fingerprint spectrum [3]: around 3 fold | emission enhancement at high-energy emission [4]: no significant emission enhancement | emission intensity at 497 nm over matched DNA ([5]; CC mismatch 5'-ACC-3' (SEQ ID NO: 17) vs matched DNA): 5 fold | emission intensity at 497 nm over matched DNA ([5]; CC mismatch 5'-GCA-3' (SEQ ID NO: 24) vs matched DNA): 5 fold | emission intensity at 497 nm over matched DNA ([5]; CC mismatch 5'-GCC-3' (SEQ ID NO: 25) vs matched DNA): 5 fold | emission intensity at 497 nm over matched DNA ([5]; CC mismatch 5'-GCG-3' (SEQ ID NO: 26) vs matched DNA): 5 fold | emission response at 497 nm, higher than matched DNA ([5]; CC mismatch 5'-GCT-3' (SEQ ID NO: 27) vs matched DNA (SEQ ID NO: 32)): 6 fold
